We go through 30 compounds from US8569495B2, “Anthelmintic agents and their use” (Intervet International B.V., priority 2007, dated 2013).

For one test, the system named is Ascaridia galli (L3) and Oesophagostomum dentatum (L3 and L4). Description: In vitro anthelmintic activity against larval stages of Ascaridia galli and Oesophagostomum dentatum (MEC). As to conditions: Ascaridia galli, in vitro; A. galli L3, O. dentatum L3 and L4; 20 larvae per well; microscopic examination; read-out: minimum effective concentration (MEC) against one or more of the tested nematodes.
For the compound `O=C(COC1CCC(Nc2ccc([N+](=O)[O-])c(C(F)(F)F)c2)CC1)N1CCCN(c2ccc(C(F)(F)F)cc2)CC1` (centres unmarked) [Example 149], the minimal effective concentration was under 1 µM.

On to `O=C(COC1CCC(Nc2ccc([N+](=O)[O-])c(C(F)(F)F)c2)CC1)N1CCCN(c2ccc(Cl)cc2)CC1` (centres unmarked) [Example 150], for which the minimal effective concentration is under 1 µM.

`CC(C)(C)c1ccc(N2CCN(C(=S)COC3CCC(Nc4ccc(OC(F)(F)F)c(C(F)(F)F)c4)CC3)CC2)cc1` (centres unmarked) [Example 206]: the minimal effective concentration is under 1 µM.

On to `COc1ccc(N2CCN(C(=S)COC3CCC(Nc4ccc([N+](=O)[O-])c(C(F)(F)F)c4)CC3)CC2)cc1OC` (centres unmarked) [Example 207], for which the minimal effective concentration was under 1 µM.

For the compound `N#Cc1ccc(NC2CCC(OCC(=S)N3CCN(c4ccc(Cl)cc4)CC3)CC2)cc1C(F)(F)F` (centres unmarked) [Example 209], the minimal effective concentration is under 1 µM.

Turning to `O=[N+]([O-])c1ccc(NC2CCC(OCC(=S)N3CCN(c4ccc(Cl)c(C(F)(F)F)c4)CC3)CC2)cc1C(F)(F)F` (centres unmarked) [Example 221], the minimal effective concentration is under 1 µM.

On to `Cc1ccc(N2CCN(C(=S)COC3CCC(Nc4ccc([N+](=O)[O-])c(C(F)(F)F)c4)CC3)CC2)cc1` (centres unmarked) [Example 222], for which the minimal effective concentration was under 1 µM.

With `COc1cc(N[C@H]2CC[C@H](OCC(=O)N3CCN(c4ccc(C(F)(F)F)cc4)CC3)CC2)ccc1[N+](=O)[O-]` [Example 234], the minimal effective concentration is under 1 µM.

In the case of `Cc1cc(N[C@H]2CC[C@H](OCC(=O)N3CCN(c4ccc(Cl)cc4)CC3)CC2)ccc1[N+](=O)[O-]` [Example 241], the minimal effective concentration was under 1 µM.

For `N#Cc1cc([N+](=O)[O-])ccc1N[C@H]1CC[C@H](OCC(=O)N2CCN(c3ccc(Cl)cc3)CC2)CC1` [Example 245], the minimal effective concentration is under 7 µM.

The same test, now with this note: Ascaridia galli, in vitro; A. galli L3, O. dentatum L3 and L4; 20 larvae per well; microscopic examination; read-out: minimum effective concentration (MEC) against two or more of the tested nematodes.
`O=C(COC1CCC(Nc2ccc([N+](=O)[O-])c(C(F)(F)F)c2)CC1)N1CCCN(c2ccc(C(F)(F)F)cc2)CC1` (centres unmarked) [Example 149]: the minimal effective concentration is under 1 µM.

As to `O=C(COC1CCC(Nc2ccc([N+](=O)[O-])c(C(F)(F)F)c2)CC1)N1CCCN(c2ccc(Cl)cc2)CC1` (centres unmarked) [Example 150], the minimal effective concentration is under 1 µM.

For the compound `O=C(COC1CCC(Nc2ccc([N+](=O)[O-])c(C(F)(F)F)c2)CC1)N1CCN(c2ccc(C(F)(F)F)cc2)C(=O)C1` (centres unmarked) [Example 158], the minimal effective concentration is under 1 µM.

For the compound `N#Cc1ccc(NC2CCC(OCC(=O)N3CCCN(c4ccc(SC(F)(F)F)cc4)CC3)CC2)cc1C(F)(F)F` (centres unmarked) [Example 160], the minimal effective concentration is under 1 µM.

On to `CC(C)(C)c1ccc(C2CCN(C(=O)COC3CCC(Nc4ccc(C#N)c(C(F)(F)F)c4)CC3)CC2)cc1` (centres unmarked) [Example 166], for which the minimal effective concentration is under 1 µM.

As to `CCCc1ccc(C2CCN(C(=O)COC3CCC(Nc4ccc(C#N)c(C(F)(F)F)c4)CC3)CC2)cc1` (centres unmarked) [Example 168], the minimal effective concentration was under 1 µM.

For the compound `CSc1ccc(NC2CCN(C(=O)COC3CCC(Nc4ccc([N+](=O)[O-])c(C(F)(F)F)c4)CC3)CC2)cc1C(F)(F)F` (centres unmarked) [Example 188], the minimal effective concentration is under 1 µM.

With `O=C(COC1CCC(Nc2ccc([N+](=O)[O-])c(C(F)(F)F)c2)CC1)N1CCC(Nc2ccc([N+](=O)[O-])c(C(F)(F)F)c2)CC1` (centres unmarked) [Example 189], the minimal effective concentration is under 1 µM.

As for `CC(C)(C)c1ccc(N2CCN(C(=S)COC3CCC(Nc4ccc(OC(F)(F)F)c(C(F)(F)F)c4)CC3)CC2)cc1` (centres unmarked) [Example 202], the minimal effective concentration is under 1 µM.

Regarding `O=[N+]([O-])c1ccc(NC2CCC(CCC(=S)N3CCN(c4ccc(C(F)(F)F)cc4)CC3)CC2)cc1C(F)(F)F` (centres unmarked) [Example 213], the minimal effective concentration is under 1 µM.

Regarding `CC(C)(C)c1ccc(N2CCN(C(=S)COC3CCC(Nc4ccc(Cl)c(C(F)(F)F)c4)CC3)CC2)cc1` (centres unmarked) [Example 215], the minimal effective concentration was under 1 µM.

With `CC(C)(C)c1ccc(N2CCN(C(=O)CO[C@H]3CC[C@H](Nc4ccc([N+](=O)[O-])c(C#N)c4)CC3)CC2)cc1` [Example 248], the minimal effective concentration was under 1 µM.

Consider `COc1cc(N[C@H]2CC[C@H](OCC(=O)N3CCN(c4ccc(C(C)(C)C)cc4)CC3)CC2)ccc1[N+](=O)[O-]` [Example 249], for which the minimal effective concentration is under 1 µM.

For the compound `CC(C)(C)c1ccc(N2CCN(C(=O)COC3C=C[C@@H](Nc4ccc([N+](=O)[O-])c(C(F)(F)F)c4)C3)CC2)cc1` (some centres unmarked) [Example 259], the minimal effective concentration was under 1 µM.

As to `CC(C)(C)c1ccc(N2CCN(C(=O)COC3CCC(Oc4ccc([N+](=O)[O-])c(C(F)(F)F)c4)CC3)CC2)cc1` (centres unmarked) [Example 260], the minimal effective concentration was under 1 µM.

As to `O=C(COC1CCC(Nc2ccc([N+](=O)[O-])c(C(F)(F)F)c2)CC1)N1CC2CN(c3ccc(Cl)cc3)CC2C1` (centres unmarked) [Example 262], the minimal effective concentration was under 1 µM.

Staying with this test, now noted: Ascaridia galli, read-out: minimum effective concentration (MEC) against one or more of the tested nematodes, in vitro; A. galli L3, O. dentatum L3 and L4; 20 larvae per well; microscopic examination.
Take `O=C(COC1CCC(Nc2ccc([N+](=O)[O-])c(C(F)(F)F)c2)CC1)NCCCNc1ccc(C(F)(F)F)cc1` (centres unmarked) [Example 152]: the minimal effective concentration was under 1 µM.

The same test, now with this note: Ascaridia galli, read-out: minimum effective concentration (MEC) against two or more of the tested nematodes, in vitro; A. galli L3, O. dentatum L3 and L4; 20 larvae per well; microscopic examination.
Turning to `CN(c1ccc([N+](=O)[O-])c(C(F)(F)F)c1)C1CCC(OCC(=S)N2CCN(c3ccc(C(F)(F)F)cc3)CC2)CC1` (centres unmarked) [Example 218], the minimal effective concentration was under 1 µM.

Take `CCC(OC1CCC(Nc2ccc([N+](=O)[O-])c(C(F)(F)F)c2)CC1)C(=O)N1CCN(c2ccc(C(F)(F)F)cc2)CC1` (centres unmarked) [Example 226]: the minimal effective concentration is under 1 µM.

The test is the same for the next values; noted with them: in vitro; A. galli L3, O. dentatum L3 and L4.
Take `O=C(CO[C@H]1CC[C@H](Nc2ccc([N+](=O)[O-])cc2C(F)(F)F)CC1)N1CCN(c2ccccc2)CC1` [Example 240]: the “activity against the tested nematodes” value was “no detectable activity”.

Another test deals with Haemonchus contortus. As to the kind of experiment: Efficacy against Haemonchus contortus in sheep. As to conditions: 10 mg/kg, oral, single treatment 35 days after infection, necropsy 7 days after treatment. It is filed as in vivo. The procedure: Anthelmintic effects of compounds of this invention were tested in vivo using Haemonchus contortus in sheep. The sheep were orally infected with approximately 5,000 third-stage larvae of Haemonchus contortus. Thirty-five days after infection, the sheep in the treatment groups were treated once orally or subcutaneously at a dose of 2, 5, 10, and/or 50 mg per kg bodyweight. Seven days after treatment, the sheep were necropsied, and the worm burden in the abomasum was determined. The efficacy was defined as the reduction of the mean worm count in the infected sheep of the treatment groups in comparison to the infected sheep in the untreated negative control group.
`CN(c1ccc([N+](=O)[O-])c(C(F)(F)F)c1)[C@H]1CC[C@H](OCC(=O)N2CCN(c3ccc(C(F)(F)F)cc3)CC2)CC1` [Example 12, 2-{trans-4-[methyl(4-nitro-3-trifluoromethyl-phenyl)-amino]-cyclohexyloxy}-1-[4-(4-trifluoromethyl-phenyl)-piperazin-1-yl]-ethanone]: the “% Reduction in H. contortus count” value amounted to 53%.

For the compound `CN(CC1CCN(c2ccc(C(F)(F)F)cc2)CC1)C(=O)[C@H]1CC[C@H](Nc2ccc([N+](=O)[O-])c(C(F)(F)F)c2)CC1` [Example 57, trans-N-methyl-4-(4-nitro-3-(trifluoromethyl)phenylamino)-N-((1-(4-(trifluoromethyl)phenyl)piperidin-4-yl)methyl)cyclohexanecarboxamide], the “% Reduction in H. contortus count” value was 83%.

The test is the same for the next values; noted with them: 10 mg/kg, subcutaneous, single treatment 35 days after infection, necropsy 7 days after treatment.
For `CN(c1ccc([N+](=O)[O-])c(C(F)(F)F)c1)[C@H]1CC[C@H](OCC(=O)N2CCN(c3ccc(C(F)(F)F)cc3)CC2)CC1` [Example 12, 2-{trans-4-[methyl(4-nitro-3-trifluoromethyl-phenyl)-amino]-cyclohexyloxy}-1-[4-(4-trifluoromethyl-phenyl)-piperazin-1-yl]-ethanone], the “% Reduction in H. contortus count” value worked out at 0%.

Regarding `CN(CC1CCN(c2ccc(C(F)(F)F)cc2)CC1)C(=O)[C@H]1CC[C@H](Nc2ccc([N+](=O)[O-])c(C(F)(F)F)c2)CC1` [Example 57, trans-N-methyl-4-(4-nitro-3-(trifluoromethyl)phenylamino)-N-((1-(4-(trifluoromethyl)phenyl)piperidin-4-yl)methyl)cyclohexanecarboxamide], the “% Reduction in H. contortus count” value was found to be 0%.

The test system of a further test is Haemonchus contortus (L4), isolate resistant to benzimidazoles and ivermectin and anthelmintic-sensitive isolate. As to the kind of experiment: In vitro resistance-breaking activity against Haemonchus contortus L4, resistant versus sensitive isolate (MEC). As to conditions: isolate resistant to benzimidazoles and ivermectin vs sensitive isolate. The method, then:
Anthelmintic resistance-breaking effects of compounds of this invention were tested in vitro using larval stage 4 (“L4”) of the parasitic nematode species Haemonchus contortus (Barber's pole worm in ruminants). One isolate of Haemonchus contortus with a resistance to benzimidazoles and ivermectin was tested in comparison to the anthelmintic-sensitive isolate of Haemonchus contortus. When conducting these experiments, various concentrations of the compounds were incubated in 96-well microtiter plates. Parasites were then distributed at 20 larvae per well. The anthelmintic effects were classified by microscopic examination. The microscopic examination included assessing mortality, damage, motility, progression of development, and neutral red uptake by the larvae in comparison to a DMSO-control and standard anthelmintics. The anthelmintic effects were defined by the minimum effective concentration (“MEC”).
Consider `CN(CC1CCN(c2ccc(C(F)(F)F)cc2)CC1)C(=O)[C@H]1CC[C@H](Nc2ccc([N+](=O)[O-])c(C(F)(F)F)c2)CC1` [Example 57, trans-N-methyl-4-(4-nitro-3-(trifluoromethyl)phenylamino)-N-((1-(4-(trifluoromethyl)phenyl)piperidin-4-yl)methyl)cyclohexanecarboxamide], for which the “activity against the resistant isolate compared with the sensitive isolate of Haemonchus contortus” value is reported as “same activity”.
